Experiment [1] has as its target Met (phospho-Met, HGF-stimulated PC-3 prostate cancer cells) (Homo sapiens (Human), UniProt P08581). Description: Met autophosphorylation ELISA in PC-3 cells (Example F). The note with it: cellular activity; Met autophosphorylation ELISA in PC-3 cells; read-out: c-Met IC50. The class given is cell-based. Put shortly:
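Compounds were tested on HGF-stimulated PC-3 cells. After 24 h culture and 3 h serum starvation, cells got compound for 1 h and 100 ng/mL HGF for 10 min, and Met tyrosine phosphorylation was measured by ELISA.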

In experiment [2] the target is Mer (phospho-Mer, MERTK-transfected 293A cells) (Homo sapiens (Human), UniProt Q12866). Description: Mer autophosphorylation ELISA in transient transfected 293A cells (Example H). The class given is cell-based. The note with it: cellular activity; Mer autophosphorylation ELISA in transient transfected 293A cells. Put shortly: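 Human MERTK transiently transfected into 293A cells; compounds as 8-point dose curve in serum-free medium (0.3% DMSO final), 1 h. Lysates assayed by phospho-Mer sandwich ELISA against phospho-Mer standard; DMSO = 100%, reference inhibitor = 0% activity; IC50 from 4-parameter logistic fit.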
Sequence of Mer (phospho-Mer, MERTK-transfected 293A cells) (Q12866 21-999): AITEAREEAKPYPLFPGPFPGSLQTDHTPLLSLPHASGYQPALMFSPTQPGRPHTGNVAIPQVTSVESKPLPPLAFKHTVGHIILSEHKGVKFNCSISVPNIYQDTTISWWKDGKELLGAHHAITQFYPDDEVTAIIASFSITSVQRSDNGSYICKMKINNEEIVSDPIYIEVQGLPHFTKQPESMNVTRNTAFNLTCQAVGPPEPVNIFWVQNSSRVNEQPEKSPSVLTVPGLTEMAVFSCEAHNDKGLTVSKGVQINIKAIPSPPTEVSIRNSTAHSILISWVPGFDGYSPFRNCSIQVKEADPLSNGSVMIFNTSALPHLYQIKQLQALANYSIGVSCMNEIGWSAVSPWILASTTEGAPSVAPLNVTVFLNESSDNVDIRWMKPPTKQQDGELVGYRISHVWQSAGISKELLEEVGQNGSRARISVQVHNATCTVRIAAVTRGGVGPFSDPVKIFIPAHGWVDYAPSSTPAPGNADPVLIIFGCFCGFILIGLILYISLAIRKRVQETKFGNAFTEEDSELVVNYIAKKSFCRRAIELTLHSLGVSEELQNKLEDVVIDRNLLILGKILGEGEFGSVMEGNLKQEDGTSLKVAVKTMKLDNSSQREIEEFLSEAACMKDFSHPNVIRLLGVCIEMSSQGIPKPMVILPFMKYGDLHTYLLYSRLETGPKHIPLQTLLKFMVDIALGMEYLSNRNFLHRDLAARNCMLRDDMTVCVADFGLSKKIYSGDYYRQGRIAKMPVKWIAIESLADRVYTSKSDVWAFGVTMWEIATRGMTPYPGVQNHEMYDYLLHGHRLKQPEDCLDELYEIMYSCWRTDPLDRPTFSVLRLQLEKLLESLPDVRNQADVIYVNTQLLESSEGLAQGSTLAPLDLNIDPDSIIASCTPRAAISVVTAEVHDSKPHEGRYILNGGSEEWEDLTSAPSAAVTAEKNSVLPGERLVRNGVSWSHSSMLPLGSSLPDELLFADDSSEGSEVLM

Experiment [3] has as its target Human MET (residues 956-1390) (Homo sapiens (Human), UniProt P08581). Description: Human Met kinase assay, HTRF KinEase (Example D-2). Type of experiment: biochemical. The note with it: protocol of Example D-2 (other compounds); read-out: c-Met IC50. An outline of the steps: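 HTRF KinEase assay on MET residues 956-1390 (0.1 ng/well) in buffer with 5 mM MgCl2, 1 mM DTT and 1 mM MnCl2, with biotinylated peptide substrate, ATP at Km, 10 compound concentrations and 3% DMSO final, run 40 min at room temperature. The […] signal was normalized to DMSO and to 1 μM reference compound, and IC50 came from a 4-parameter logistic fit.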

Experiment [4] concerns the target Human MER (residues 528-999) (Homo sapiens (Human), UniProt Q12866). Description: Human Mer kinase assay, HTRF KinEase (Example C-2). The class given is biochemical. As to conditions: protocol of Example C-2 (other compounds). An outline of the steps: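 HTRF KinEase TK assay with MER 528-999 (1 ng/well) in enzymatic buffer plus 5 mM MgCl2 and 1 mM DTT, biotinylated peptide substrate and ATP at Km (40 μM), 3% DMSO final, 60 min at room temperature. Stopped with EDTA detection mix (SA-XL665, TK antibody-Eu3+), read at 665/620 nm after 60 min; IC50 from 10-point 4-parameter fit, normalized to DMSO and 1 μM reference.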

Structures can show the parent of a compound that is named as a salt.

Sequence of Met (phospho-Met, HGF-stimulated PC-3 prostate cancer cells) (P08581 25-1390): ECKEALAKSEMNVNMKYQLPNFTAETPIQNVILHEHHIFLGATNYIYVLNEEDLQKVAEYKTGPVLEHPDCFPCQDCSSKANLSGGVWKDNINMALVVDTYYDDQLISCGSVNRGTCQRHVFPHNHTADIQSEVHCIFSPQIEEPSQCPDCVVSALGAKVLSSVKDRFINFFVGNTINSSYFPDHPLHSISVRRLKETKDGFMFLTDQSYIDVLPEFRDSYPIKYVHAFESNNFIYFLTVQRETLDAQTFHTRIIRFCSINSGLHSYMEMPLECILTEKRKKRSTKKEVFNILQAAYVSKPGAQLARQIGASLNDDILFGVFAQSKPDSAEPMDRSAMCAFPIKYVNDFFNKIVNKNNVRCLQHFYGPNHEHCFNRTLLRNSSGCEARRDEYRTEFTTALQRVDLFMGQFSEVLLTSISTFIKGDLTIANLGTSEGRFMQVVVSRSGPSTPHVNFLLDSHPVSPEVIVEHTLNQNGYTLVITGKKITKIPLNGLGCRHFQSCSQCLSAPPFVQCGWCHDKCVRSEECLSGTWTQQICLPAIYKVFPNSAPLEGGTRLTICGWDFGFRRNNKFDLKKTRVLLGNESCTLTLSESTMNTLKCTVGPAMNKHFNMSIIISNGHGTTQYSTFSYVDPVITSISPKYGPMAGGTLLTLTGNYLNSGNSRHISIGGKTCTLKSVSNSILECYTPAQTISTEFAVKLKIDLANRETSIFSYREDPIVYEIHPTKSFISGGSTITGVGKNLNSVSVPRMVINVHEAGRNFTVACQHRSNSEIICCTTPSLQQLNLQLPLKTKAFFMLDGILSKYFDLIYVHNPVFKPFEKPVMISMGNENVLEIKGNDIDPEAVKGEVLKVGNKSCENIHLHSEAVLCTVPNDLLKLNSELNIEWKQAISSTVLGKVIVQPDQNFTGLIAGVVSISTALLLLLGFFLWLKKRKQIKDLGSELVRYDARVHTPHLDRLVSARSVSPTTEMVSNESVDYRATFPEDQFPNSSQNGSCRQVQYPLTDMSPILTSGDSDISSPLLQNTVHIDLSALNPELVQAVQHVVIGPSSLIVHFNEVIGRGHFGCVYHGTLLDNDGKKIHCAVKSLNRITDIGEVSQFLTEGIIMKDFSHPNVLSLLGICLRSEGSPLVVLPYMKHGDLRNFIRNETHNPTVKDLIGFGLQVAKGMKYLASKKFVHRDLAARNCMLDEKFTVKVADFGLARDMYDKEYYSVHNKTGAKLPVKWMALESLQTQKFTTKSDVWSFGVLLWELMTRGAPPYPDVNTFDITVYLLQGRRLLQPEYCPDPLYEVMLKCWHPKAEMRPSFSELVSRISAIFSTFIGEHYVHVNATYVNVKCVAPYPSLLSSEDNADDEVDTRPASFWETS
Sequence of Human MER (residues 528-999) (Q12866 528-999): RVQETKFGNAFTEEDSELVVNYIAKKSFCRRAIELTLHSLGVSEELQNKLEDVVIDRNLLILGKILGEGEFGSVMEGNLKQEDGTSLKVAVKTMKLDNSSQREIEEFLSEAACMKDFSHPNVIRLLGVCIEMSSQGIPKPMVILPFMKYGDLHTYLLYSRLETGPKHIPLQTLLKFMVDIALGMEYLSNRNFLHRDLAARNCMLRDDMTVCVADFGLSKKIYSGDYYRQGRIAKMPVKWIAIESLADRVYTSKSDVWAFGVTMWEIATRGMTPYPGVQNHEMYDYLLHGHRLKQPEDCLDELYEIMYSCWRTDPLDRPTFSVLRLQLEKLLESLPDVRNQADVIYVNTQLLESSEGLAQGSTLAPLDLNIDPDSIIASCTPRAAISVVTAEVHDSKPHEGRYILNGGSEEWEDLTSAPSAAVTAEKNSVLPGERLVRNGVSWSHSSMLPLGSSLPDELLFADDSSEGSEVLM
Sequence of Human MET (residues 956-1390) (P08581 956-1390): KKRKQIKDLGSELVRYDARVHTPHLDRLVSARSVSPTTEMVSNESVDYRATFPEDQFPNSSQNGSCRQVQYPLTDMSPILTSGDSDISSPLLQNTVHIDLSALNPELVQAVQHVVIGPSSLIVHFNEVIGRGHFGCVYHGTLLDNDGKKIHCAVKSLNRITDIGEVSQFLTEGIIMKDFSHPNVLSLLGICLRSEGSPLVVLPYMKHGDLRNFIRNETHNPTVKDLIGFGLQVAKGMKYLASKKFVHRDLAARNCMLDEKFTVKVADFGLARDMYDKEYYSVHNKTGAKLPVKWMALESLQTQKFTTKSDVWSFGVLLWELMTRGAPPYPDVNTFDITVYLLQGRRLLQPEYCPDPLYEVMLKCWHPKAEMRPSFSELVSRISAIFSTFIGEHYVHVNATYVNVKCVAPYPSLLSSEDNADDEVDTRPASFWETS

For `COCc1c(-c2ccc(F)cc2)c(=O)c(C(=O)Nc2ccc(Oc3ccnc4cc(OC)cnc34)c(F)c2)cn1C` [Compound 270, N-[3-Fluoro-4-[(7-methoxy-1,5-naphthyridin-4-yl)oxy]phenyl]-5-(4-fluorophenyl)-6-(methoxymethyl)-1-methyl-4-oxopyridine-3-carboxamide], the 50% inhibitory concentration (IC50) in experiment [1] is 100 to 300 nM; in experiment [2], below 100 nM; in experiment [3] it was below 100 nM; in experiment [4] it was below 100 nM.

With `COc1ccc2nccc(Oc3ccc(NC(=O)c4cnc(C)c(-c5ccc(F)cc5)c4O)cc3F)c2c1` [Compound 347, N-[3-fluoro-4-(6-methoxyquinolin-4-yl)oxyphenyl]-5-(4-fluorophenyl)-4-hydroxy-6-methylpyridine-3-carboxamide], the IC50 in experiment [1], in experiment [2], in experiment [3] and in experiment [4] was below 100 nM each time.

For the compound `COc1cc2nccc(Oc3ccc(NC(=O)c4cn(C)cc(-c5ccc(Cl)cc5)c4=O)cc3F)c2nc1OC` [Compound 38, 5-(4-Chlorophenyl)-N-[4-[(6,7-dimethoxy-1,5-naphthyridin-4-yl)oxy]-3-fluorophenyl]-1-methyl-4-oxopyridine-3-carboxamide hydrochloride], the IC50 is 100 to 300 nM in experiment [1], below 100 nM in experiment [2], below 100 nM in experiment [3] and below 100 nM in experiment [4].

In the case of `COc1ccc2nccc(Oc3ccc(NC(=O)c4c(C)cc(C)n(-c5ccc(F)cc5C)c4=O)cc3F)c2n1` [Compound 296, N-[3-Fluoro-4-[(6-methoxy-1,5-naphthyridin-4-yl)oxy]phenyl]-1-(4-fluoro-2-methylphenyl)-4,6-dimethyl-2-oxopyridine-3-carboxamide], the IC50 is below 100 nM in experiment [1], below 100 nM in experiment [2], 100 to 300 nM in experiment [3] and below 100 nM in experiment [4].

Regarding `COc1cc2nccc(Oc3ccc(NC(=O)c4cn(C)c(C)c(-c5ccc(F)cc5)c4=O)c(F)c3)c2nc1OC` [Compound 389, N-[4-[(6,7-dimethoxy-1,5-naphthyridin-4-yl)oxy]-2-fluorophenyl]-5-(4-fluorophenyl)-1,6-dimethyl-4-oxopyridine-3-carboxamide], the IC50 in experiment [1] is below 100 nM; in experiment [2] it was below 100 nM; in experiment [3], above 300 nM; in experiment [4], below 100 nM.

Regarding `COc1ccc2nccc(Oc3ccc(NC(=O)c4cn(C)c(C)c(-c5ccc(F)cc5)c4=O)cc3)c2n1` [Compound 356, 5-(4-fluorophenyl)-N-[4-[(6-methoxy-1,5-naphthyridin-4-yl)oxy]phenyl]-1,6-dimethyl-4-oxopyridine-3-carboxamide], the IC50 was below 100 nM in experiment [1], below 100 nM in experiment [2], 100 to 300 nM in experiment [3] and below 100 nM in experiment [4].

Turning to `CCn1cc(C(=O)Nc2ccc(Oc3ccnc4cc(OC)c(OC)nc34)c(F)c2)c(=O)c(-c2ccc(F)cc2C)c1CO` [Compound 283, N-[4-[(6,7-Dimethoxy-1,5-naphthyridin-4-yl)oxy]-3-fluorophenyl]-1-ethyl-5-(4-fluoro-2-methylphenyl)-6-(hydroxymethyl)-4-oxopyridine-3-carboxamide], the IC50 in experiment [1], in experiment [2], in experiment [3] and in experiment [4] was below 100 nM in each case.

With `COc1cc2nccc(Oc3ccc(NC(=O)c4nn(C(C)C)c(C)c(-c5ccc(F)cc5)c4=O)cc3F)c2nc1OC` [Compound 364, N-[4-[(6,7-dimethoxy-1,5-naphthyridin-4-yl)oxy]-3-fluorophenyl]-5-(4-fluorophenyl)-6-methyl-4-oxo-1-propan-2-ylpyridazine-3-carboxamide], the IC50 in experiment [1], in experiment [2], in experiment [3] and in experiment [4] was below 100 nM in each case.

Regarding `COc1cnc2c(Oc3ccc(NC(=O)c4c(C)ccn(-c5ccc(F)cc5)c4=O)cc3)ccnc2c1` [Compound 300, 1-(4-Fluorophenyl)-N-[4-[(7-methoxy-1,5-naphthyridin-4-yl)oxy]phenyl]-4-methyl-2-oxopyridine-3-carboxamide], the IC50 was below 100 nM in experiment [1], below 100 nM in experiment [2], 100 to 300 nM in experiment [3] and below 100 nM in experiment [4].

For `Cc1ccc2nccc(Oc3ccc(NC(=O)c4c(C)cc(C)n(-c5ccc(F)cc5)c4=O)cc3F)c2n1` [Compound 297, N-[3-Fluoro-4-[(6-methyl-1,5-naphthyridin-4-yl)oxy]phenyl]-1-(4-fluorophenyl)-4,6-dimethyl-2-oxopyridine-3-carboxamide], the IC50 in experiment [1], in experiment [2], in experiment [3] and in experiment [4] was below 100 nM throughout.

As for `COc1ccc2nccc(Oc3ccc(NC(=O)c4cccn(-c5ccc(F)cc5)c4=O)cc3F)c2n1` [Compound 292, N-[3-Fluoro-4-[(6-methoxy-1,5-naphthyridin-4-yl)oxy]phenyl]-1-(4-fluorophenyl)-2-oxopyridine-3-carboxamide], the IC50 in experiment [1], in experiment [2], in experiment [3] and in experiment [4] was below 100 nM in each case.

As for `COc1cc2nccc(Oc3ccc(NC(=O)c4c(C)ccn(-c5ccc(F)cc5)c4=O)cc3)c2nc1OC` [Compound 299, N-[4-[(6,7-Dimethoxy-1,5-naphthyridin-4-yl)oxy]phenyl]-1-(4-fluorophenyl)-4-methyl-2-oxopyridine-3-carboxamide], the IC50 in experiment [1], in experiment [2], in experiment [3] and in experiment [4] was below 100 nM in each case.

In the case of `COc1cc2nccc(Oc3ncc(NC(=O)c4cn(C5CN(C)C5)cc(-c5ccc(F)cc5)c4=O)cc3F)c2cc1OC` [Compound 400, N-[6-(6,7-dimethoxyquinolin-4-yl)oxy-5-fluoropyridin-3-yl]-5-(4-fluorophenyl)-1-(1-methylazetidin-3-yl)-4-oxopyridine-3-carboxamide], the IC50 in experiment [1], in experiment [2], in experiment [3] and in experiment [4] was below 100 nM in each case.

With `COc1cc2nccc(Oc3ccc(NC(=O)C4=C5CCCN5CC(c5ccc(F)cc5)C4=O)cc3F)c2nc1OC` (single isomer, unassigned; enantiomer 1) [Compound 374, N-[4-[(6,7-dimethoxy-1,5-naphthyridin-4-yl)oxy]-3-fluorophenyl]-6-(4-fluorophenyl)-7-oxo-2,3,5,6-tetrahydro-1H-indolizine-8-carboxamide, enantiomer 1], the half-inhibitory concentration (IC50) in experiment [1], in experiment [2], in experiment [3] and in experiment [4] was below 100 nM each time.

Take `COc1ccc2nccc(Oc3ccc(NC(=O)c4ccc(C)n(-c5ccc(F)cc5)c4=O)cc3)c2n1` [Compound 343, 1-(4-fluorophenyl)-N-[4-[(6-methoxy-1,5-naphthyridin-4-yl)oxy]phenyl]-6-methyl-2-oxopyridine-3-carboxamide]: the IC50 in experiment [1], in experiment [2], in experiment [3] and in experiment [4] was below 100 nM each time.

`COc1cnc2c(Oc3ccc(NC(=O)c4c(C)ccn(-c5ccc(F)cc5)c4=O)cc3F)ccnc2c1` [Compound 294, N-[3-Fluoro-4-[(7-methoxy-1,5-naphthyridin-4-yl)oxy]phenyl]-1-(4-fluorophenyl)-4-methyl-2-oxopyridine-3-carboxamide]: the IC50 in experiment [1], in experiment [2], in experiment [3] and in experiment [4] was below 100 nM each time.

Regarding `COc1ccc2nccc(Oc3ccc(NC(=O)c4ncc(C)n(-c5ccc(F)cc5C)c4=O)cc3F)c2n1` [Compound 394, N-[3-fluoro-4-[(6-methoxy-1,5-naphthyridin-4-yl)oxy]phenyl]-4-(4-fluoro-2-methylphenyl)-5-methyl-3-oxopyrazine-2-carboxamide], the IC50 in experiment [1], in experiment [2], in experiment [3] and in experiment [4] was below 100 nM in each case.

Take `COc1ccc2nccc(Oc3ccc(NC(=O)c4ccc(C)n(-c5ccc(F)cc5)c4=O)cc3F)c2c1` [Compound 346, N-[3-fluoro-4-(6-methoxyquinolin-4-yl)oxyphenyl]-1-(4-fluorophenyl)-6-methyl-2-oxopyridine-3-carboxamide]: the IC50 in experiment [1], in experiment [2], in experiment [3] and in experiment [4] was below 100 nM in each case.

The record behind these values is patent publication US12371428B2 (Exelixis, Inc., priority 2019, dated 2025).
